Patent publication US10131652B2, “Pyrimidinyloxy benzene derivatives as herbicides” (E. I. DU PONT DE NEMOURS AND COMPANY, priority 2014, dated 2018)

Experiments:
Type in all cases: in vivo
wild oat (Avena fatua) = assay: Test D postemergence plant response
Description: (§1) At the same time, plants selected from these crop and weed species and also kochia (Kochia scoparia), wild oat (Avena fatua), and chickweed (common chickweed, Stellaria media) were planted in pots containing Redi-Earth® planting medium (Scotts Company, 14111 Scottslawn Road, Marysville, Ohio 43041) comprising spaghnum peat moss, vermiculite, wetting agent and starter nutrients and treated with postemergence applications of test chemicals formulated in the same manner. Plants ranged in height from 2 to 18 cm (1- to 4-leaf stage) for postemergence treatments. Treated plants and controls were maintained in a greenhouse for 13 to 15 days, after which time all species were compared to controls and visually evaluated. Plant response ratings, summarized in Table D, are based on a scale of 0 to 100 where 0 is no effect and 100 is complete control. A dash (-) response means no test result.

[1] = tested on: chickweed (common chickweed, Stellaria media); assay: Test D postemergence plant response
Description: as §1

kochia (Kochia scoparia) = assay: Test D postemergence plant response
Description: as §1

[2] = tested on: galium (catchweed bedstraw, Galium aparine); assay: Test B postemergence plant response
Outline: (§2)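 Weeds grown in loam soil/sand pots were sprayed postemergence at 2 to 10 cm height, one- to two-leaf stage. After approximately 10 days in greenhouse, injury was rated visually against untreated controls on a 0 (no effect) to 100 (complete control) scale; dash means no test result.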

[3] = tested on: blackgrass (Alopecurus myosuroides); assay: Test B postemergence plant response
Outline: as §2

[4] = 31 g ai/ha, scale 0 to 100 (0 no effect, 100 complete control)
[5] = 62 g ai/ha, scale 0 to 100, 0 no effect, 100 complete control
[6] = 125 g ai/ha, scale 0 to 100, 0 no effect, 100 complete control
[7] = 16 g ai/ha, scale 0 to 100 (0 no effect, 100 complete control)
[8] = 125 g ai/ha, postemergence, 0 to 100 scale, 0 no effect, 100 complete control
[9] = Postemergence, 31 g ai/ha, 0 to 100 scale (0 no effect, 100 complete control)
[10] = Postemergence, 500 g ai/ha, 0 to 100 scale (0 no effect, 100 complete control)

Row | Structure (SMILES) | Oat, Wild plant response rating (wild oat (Avena fatua); [4]) | Plant response rating, Oat, Wild (wild oat (Avena fatua); [5]) | Plant response rating, Oat, Wild (wild oat (Avena fatua); [6]) | Chickweed plant response rating [1, 7] | Chickweed plant response rating [1, 4] | Plant response rating, Chickweed [1, 5] | Plant response rating, Chickweed [1, 6] | Kochia plant response rating (kochia (Kochia scoparia); [4]) | Plant response rating, Kochia (kochia (Kochia scoparia); [5]) | Plant response rating, Kochia (kochia (Kochia scoparia); [6]) | Plant response rating, Galium [2, 8] | Plant response rating, Blackgrass [3, 8] | Plant response rating, Galium [2, 10] | Plant response rating, Blackgrass [3, 10] | further results
1 | FC(F)Oc1cccc(Oc2ncc(Cl)cn2)c1-c1cc(C(F)F)on1 [Compound 131] | 15 | 20 | 35 | 65 | 80 | 98 | 100 | 90 | 95 | 100 | 90 | 80 | – | – | Plant response rating, Blackgrass ([3]; 31 g ai/ha, Postemergence, 0 to 100 scale, 0 no effect, 100 complete control): 50
2 | FC(F)(Cl)c1cc(-c2ccccc2Oc2ncc(Cl)cn2)no1 [Compound 143] | 0 | 5 | 5 | 45 | 50 | 60 | 80 | 100 | 100 | 100 | 100 | 60 | – | – | Plant response rating, Galium [2, 9]: 50; Plant response rating, Blackgrass [3, 9]: 30
3 | Cc1cc(-c2ccccc2Oc2ncc(Cl)cn2)no1 [Compound 153] | 0 | 0 | 0 | 20 | 20 | 20 | 25 | 50 | 40 | 60 | 90 | 40 | 100 | 90 | –
4 | FC(F)(F)c1cc(-c2c(I)cccc2Oc2ncc(Cl)cn2)no1 [Compound 156] | 0 | 0 | – | 5 | 45 | 70 | – | 30 | 45 | – | 90 | 20 | 100 | 40 | Plant response rating (scale 0 to 100), Oat, Wild (wild oat (Avena fatua); 8 g ai/ha): 0; Plant response rating (scale 0 to 100), Chickweed ([1]; 8 g ai/ha): 5; Plant response rating (scale 0 to 100), Kochia (kochia (Kochia scoparia); 8 g ai/ha): 0
5 | N#Cc1cccc(Oc2ncc(Cl)cn2)c1-c1cc(C(F)(F)F)on1 [Compound 157] | 10 | – | – | 50 | 75 | – | – | 90 | – | – | 100 | 70 | 100 | 90 | Plant response rating (scale 0 to 100), Oat, Wild (wild oat (Avena fatua); 4 g ai/ha): 0; Plant response rating (scale 0 to 100), Oat, Wild (wild oat (Avena fatua); 8 g ai/ha): 0; Plant response rating (scale 0 to 100), Chickweed ([1]; 4 g ai/ha): 5; Plant response rating (scale 0 to 100), Chickweed ([1]; 8 g ai/ha): 10; Plant response rating (scale 0 to 100), Kochia (kochia (Kochia scoparia); 4 g ai/ha): 0; Plant response rating (scale 0 to 100), Kochia (kochia (Kochia scoparia); 8 g ai/ha): 20
6 | FC(F)(Br)c1cc(-c2ccccc2Oc2ncc(Cl)cn2)no1 [Compound 162] | 5 | 5 | 10 | 50 | 60 | 60 | 85 | 100 | 100 | 100 | 90 | 30 | – | – | Plant response rating, Galium [2, 9]: 90; Plant response rating, Blackgrass [3, 9]: 30
7 | Fc1cccc(Oc2ncc(Cl)cn2)c1-c1cc(C(F)(F)F)on1 [Compound 168, 5-chloro-2-[2-[5-(trifluoromethyl)-3-isoxazolyl]-3-fluorophenoxy]pyrimidine] | – | – | – | – | – | – | – | – | – | – | 100 | 90 | 100 | 90 | pest or weed control at 31 g/ha (wild oat (Avena fatua); Avena fatua, post-emergence, 31 g ai/ha, scale 0 to 100 (0 no effect, 100 complete control), read-out: Oat, Wild plant response rating): 10%; pest or weed control at 62 g/ha (wild oat (Avena fatua); Avena fatua, post-emergence, 62 g ai/ha, scale 0 to 100, 0 no effect, 100 complete control, read-out: Plant response rating, Oat, Wild): 20%; pest or weed control at 125 g/ha (wild oat (Avena fatua); Avena fatua, post-emergence, 125 g ai/ha, scale 0 to 100, 0 no effect, 100 complete control, read-out: Plant response rating, Oat, Wild): 30%; pest or weed control at 16 g/ha ([1]; Stellaria media, post-emergence, 16 g ai/ha, scale 0 to 100 (0 no effect, 100 complete control), read-out: Chickweed plant response rating): 65%; pest or weed control at 31 g/ha ([1]; Stellaria media, post-emergence, 31 g ai/ha, scale 0 to 100 (0 no effect, 100 complete control), read-out: Chickweed plant response rating): 98%; pest or weed control at 62 g/ha ([1]; Stellaria media, post-emergence, 62 g ai/ha, scale 0 to 100, 0 no effect, 100 complete control, read-out: Plant response rating, Chickweed): 100%; pest or weed control at 125 g/ha ([1]; Stellaria media, post-emergence, 125 g ai/ha, scale 0 to 100, 0 no effect, 100 complete control, read-out: Plant response rating, Chickweed): 100%; pest or weed control at 31 g/ha (kochia (Kochia scoparia); Bassia scoparia, post-emergence, 31 g ai/ha, scale 0 to 100 (0 no effect, 100 complete control), read-out: Kochia plant response rating): 100%; pest or weed control at 62 g/ha (kochia (Kochia scoparia); Bassia scoparia, post-emergence, 62 g ai/ha, scale 0 to 100, 0 no effect, 100 complete control, read-out: Plant response rating, Kochia): 100%; pest or weed control at 125 g/ha (kochia (Kochia scoparia); Bassia scoparia, post-emergence, 125 g ai/ha, scale 0 to 100, 0 no effect, 100 complete control, read-out: Plant response rating, Kochia): 100%
8 | FC(F)(F)c1cc(-c2c(Cl)cccc2Oc2ncc(Cl)cn2)no1 [Compound 169] | 5 | 5 | 10 | 5 | 40 | 70 | 80 | 60 | 90 | 95 | 100 | 50 | 100 | 90 | –
9 | FC(F)(F)c1cc(-c2c(Br)cccc2Oc2ncc(Cl)cn2)no1 [Compound 170] | 5 | 5 | 10 | 30 | 65 | 90 | 100 | 60 | 85 | 100 | 80 | 50 | 100 | 60 | –
